Test results: US20080108642A1 (Tsinghua University, priority 2006, published 2008)
“Also recorded” adds a separate entry of the source. Where a name gives a salt, the structure may show the parent alone.

Tests used:
[1] = LC-DAD-MS analysis of ingredients in rat plasma after oral administration of QLY decoction; details: 20 minutes after oral administration of QLY decoction
Text: Liquid chromatography simultaneously coupled with a diode array detector and a mass spectrometry detector (LC-DAD-MS) was used to analyze the pharmaceutical ingredients in rat plasma at different time points after oral administration of QLY decoction in order to determine the ingredients in QLY that could be absorbed into the body through metabolism. In this experiment, performed were comparison analyses of chromatogram and mass spectrum of QLY decoction and those of decoction of each of the constituent herbs of QLY, comparison analyses of chromatogram and mass spectrum of QLY decoction and those of QLY decoction plus blank plasma, comparison analyses of chromatogram and mass spectrum of blank plasma and those of post-administration plasma (blood sample taken at 20 min, 1 h, and 2 h respectively after oral administration of QLY decoction).

[2] = test system: Human Umbilical Vein Endothelial Cells (HUVEC); experiment: Suppression of endothelial cell proliferation, separate and combined use (equivalent curve / response surface method); type: cell-based; details: separate use
Text: Human Umbilical Vein Endothelial Cells (HUVEC) were employed in the experiment and the suppression rate on endothelial cell proliferation were monitored. Classical methods including equivalent curve method and the response surface method were used and the amount-effect curves were plotted.

SMILES: CN1C[C@@H]2C[C@H](C1)c1cccc(=O)n1C2 [N-methylcytisine]
- detected in plasma of rats after oral administration of QLY [1]: small amounts

SMILES: O=C1CCCC2C3CCCN4CCCC(CN12)C34 (stereo not drawn) [matrine, Matrine]
- effect on suppressing proliferation of endothelial cells (anti-angiogenesis activity) [2]: relatively strong; also recorded: remarkable effect
- detected in plasma of rats after oral administration of QLY [1]: detected

SMILES: COC1=C[C@@H]2[C@@H]3Cc4ccc(OC)c(O)c4[C@]2(CCN3C)CC1=O [sinomenine hydrochloride]
- effect on suppressing proliferation of endothelial cells (anti-angiogenesis activity) ([2]; hydrochloride): relatively strong; also recorded: remarkable effect

SMILES: COC1=CC2C3Cc4ccc(OC)c(O)c4[C@]2(CCN3C)CC1=O (stereo partly drawn) [sinomenine, Sinomenine]
- detected in plasma of rats after oral administration of QLY [1]: detected

SMILES: O=C1C=CC[C@@H]2[C@H]3CCCN4CCC[C@@H](CN12)[C@@H]34 [sophocarpine]
- detected in plasma of rats after oral administration of QLY [1]: small amounts
